± gives the expanded uncertainty stated by the source.

A short description of this data set: activity coefficient (dimensionless); of the first substance listed, at infinite dilution; xn = mol fraction of the nth substance listed. Conditions: 363.65 K; Liquid; x1 = 0.
For the molecule `CCO` [ethanol] + CCn1cc[n+](C)c1.F[B-](F)(F)F, the activity coefficient was found to be 1.33 ± 0.09.
With `O` [water] + CCCCn1cc[n+](C)c1.[Cl-], the activity coefficient was 0.1.
Under `O` [water] + CCCCn1cc[n+](C)c1.F[B-](F)(F)F stands 0.61 ± 0.06; under `CO` [methanol] + CCn1cc[n+](C)c1.F[B-](F)(F)F, 0.4 ± 0.07.
As to `O` [water] + CCn1cc[n+](C)c1.F[B-](F)(F)F, the activity coefficient is 0.45 ± 0.07.
On to `C1CCOC1` [tetrahydrofuran] + CCCCCCCC[n+]1ccn(C)c1.F[B-](F)(F)F, for which the activity coefficient came to 1.09 ± 0.06.
Regarding `C1CCOC1` [tetrahydrofuran] + CCCCn1cc[n+](C)c1.F[B-](F)(F)F, the activity coefficient came to 2 ± 0.18.
`O` [water] + CCCCCCCC[n+]1ccn(C)c1.F[B-](F)(F)F: the activity coefficient is 0.68 ± 0.06.
The figure for `CCO` [ethanol] + CCCCn1cc[n+](C)c1.F[B-](F)(F)F is 1.25 ± 0.08.
The figure for `C1CCOC1` [tetrahydrofuran] + CCCCn1cc[n+](C)c1.[Cl-] is 3.81 ± 0.35; for `CCO` [ethanol] + CCCCn1cc[n+](C)c1.[Cl-] it is 0.2 ± 0.07; for `CCO` [ethanol] + CCCCCCCC[n+]1ccn(C)c1.F[B-](F)(F)F it is 0.81 ± 0.06.
Take `C1CCOC1` [tetrahydrofuran] + CCn1cc[n+](C)c1.F[B-](F)(F)F: the activity coefficient was 3.48 ± 0.32.

(Values after the NIST ThermoML archive (doi:10.1016/j.jct.2005.04.013).)
